# Assay results from patent publication US7566683B2, “Ethylene derivatives and pesticides containing said derivatives” (priority 1996, dated 2009).
# Columns and labels:
# [1] = test system: Cucurbit Leaf Beetles (Aulacophora femoralis Motschulsky); assay: Insecticidal test for cucurbit leaf beetles; type: in vivo; conditions: 144 h, cucumber leaves dipped in 500 ppm solution, second instar nymphae, 25° C., after 6 days
# Experimental: The leaves of cucumbers were dipped in this chemical solution for about 10 seconds, dried in air, and put into a laboratory dish. Ten (10) second instar nymphae of cucurbit leaf beetles (Aulacophora femoralis) were released in each dish. Each dish was covered with a cover, and stored in a thermostatic chamber at 25° C. […] Each compound was tested in that manner for two groups of dishes.
# [2] = test system: Two-Spotted Spider Mites (Tetranychus urticae Koch); assay: whole plant or invertebrate; type: in vivo; conditions: foliar, 500 ppm solution sprayed 2 ml/cup on kidney bean leaf discs, larvae, 25° C., after 96 hours
# Experimental: The leaves of kidney bean plants were punched into 3 cm-diameter discs, using a leaf punch, and put onto moistured filter paper in a 7 cm-diameter styrol cup. Ten (10) larvae of two-spotted spider mites (Tetranychus urticae) were put to each leaf. […] The solution was sprayed over each cup in an amount of 2 ml/cup, using a rotary sprinkler, and the cups were stored in a thermostatic chamber at 25° C. […] Each compound was tested in that manner for two groups of cups.
# [3] = test system: Diamond Back Moth (Plutella xylostella Linné); assay: Insecticidal test for diamond back moth; type: in vivo; conditions: 144 h, cabbage leaves dipped in 500 ppm aqueous emulsion, second larvae, 25° C., after 6 days
# Experimental: The leaves of cabbage were dipped in a 500 ppm aqueous emulsion of a compound of the invention for about 10 seconds. After having been dried in air, the thus-treated leaves were put into laboratory dishes. Ten (10) second larvae of diamond back moth (Plutella xylostella) were released in each dish. Each dish was covered with a perforated cover, and stored in a thermostatic chamber at 25° C. […] Each compound was tested in that manner for two groups of dishes.
# [4] = test system: Green Peach Aphids (Myzus persicae Sulzer); assay: Insecticidal test for green peach aphids; type: in vivo; conditions: 144 h, 500 ppm spray (2.5 mg/cm^2) on cabbage leaf, apterous adults, larvae and adults counted after 6 days
# Experimental: Moistured filter paper was placed in each laboratory glass dish having an inner diameter of 3 cm, and a leaf cabbage having the same diameter as that of the dish was put on the filter paper. Four female, apterous adults of green peach aphids (Myzus persicae) were put on the cabbage leaf. Fllowing day, a chemical sample (2.5 mg/cm^2) was sprayed over the dishes, using a rotary sprinkler. […] After 6 days passed, the insects in each cylinder were observed, and mortality of the insects (larvae and adults) was determined according to the following equation. Each compound was tested in that manner for two groups of dishes. Mortality (%)=[number of insect killed/(number of insect killed+number of living insect)]×100
# [5] = test system: Brown Rice Planthopper (Nilaparvata lugens Stal); assay: Insecticidal test for brown rice planthopper; type: in vivo; conditions: 144 h, 500 ppm solution applied to rice stems and leaves, second instar nymphae, after 6 days
# Text: The stems and leaves of rice-plants in 1/20,000 are pot were sufficiently applied with the resulting solution. After the thus-applied chemical solution was dried in air, each pot was covered with a cylindrical cover. Ten (10) second instar nymphae of brown rice planthoppers (Nilaparvata lugens) were released in each pot. After having been thus covered, the pots were stored in a thermostatic chamber. After 6 days passed, the insects in each pot were observed, and the mortality thereof was determined according to the following equation. Each compound was tested in that manner for two groups of pots. Mortality (%)=([number of insect killed/(number of insect killed+number of living insect)]×100
SMILES,mortality at 500 ppm [1],mortality at 500 ppm [2],mortality at 500 ppm [3],also measured
Cn1nc(C(F)(F)F)c(C(O)=C(Br)n2ccc(-c3c(F)cccc3F)n2)c1Cl,,,,melting point: 123 to 125 °C
Cn1nc(Cl)c(C(=O)C(Br)c2ccccc2)c1Cl (stereo not shown),,,,melting point: 74.5 to 75.5 °C
"Cn1nc(Cl)c(C(O)=C(C#N)n2ccc(-c3c(F)cccc3F)n2)c1Cl [I-40, 2-{3-(2,6-difluorophenyl)pyrazol-1-yl}-3-(1-methyl-3,5-dichloropyrazol-4-yl)-3-hydroxyacrylonitrile]",100%,≥ 80%,≥ 80%,mortality at 500 ppm [4]: ≥ 80%
"Cn1nc(Cl)c(C(O)=C(C#N)c2csc(-c3ccccc3)n2)c1Cl [II-1, 3-(1-methyl-3,5-dichloropyrazol-4-yl)-2-(2-phenylthiazol-4-yl)-3-hydroxyacrylonitrile]",100%,,≥ 80%,mortality at 500 ppm [5]: ≥ 80%
"Cc1nc(C(F)(F)F)c(C(OC(=O)c2ccccc2)=C(C#N)c2csc(C(C)(C)C)n2)s1 [II-75, 2-(2-tert-butylthiazol-4-yl)-3-(2-methyl-4-trifluoromethylthiazol-5-yl)-3-benzoyloxyacrylonitrile]",,≥ 80%,≥ 80%,mortality at 500 ppm [5]: ≥ 80%; mortality at 500 ppm [4]: ≥ 80%
"Cn1nc(C(F)(F)F)c(C(OC(=O)C(C)(C)C)=C(C#N)c2nc(C(C)(C)C)cs2)c1Cl [III-6, 3-(1-methyl-3-trifluoromethyl-5-chloropyrazol-4-yl)-2-(4-tert-butylthiazol-2-yl)-3-pivaloyloxyacrylonitrile]",100%,≥ 80%,≥ 80%,mortality at 500 ppm [5]: ≥ 80%; mortality at 500 ppm [4]: ≥ 80%
"Cn1nc(Cl)c(C(=O)OC(=C(C#N)c2ccc(C(F)(F)F)cc2)c2c(Cl)nn(C)c2Cl)c1Cl [IV-5, 2-(4-trifluoromethylphenyl)-3-(1-methyl-3,5-dichloropyrazol-4-yl)-3-(1-methyl-3,5-dichloropyrazole-4-carbonyloxy)acrylonitrile]",,≥ 80%,,
"Cn1nc(Cl)c(C(O)=C(C#N)c2ccc(C(C)(C)C)cc2)c1Cl [IV-18, 2-(4-tert-butylphenyl)-3-(1-methyl-3,5-dichloropyrazol-4-yl)-3-hydroxyacrylonitrile]",,≥ 80%,,
"Cn1nc(C(F)(F)F)c(C(OC(=O)C(C)(C)C)=C(C#N)c2ccc(C(C)(C)C)cc2)c1Cl [IV-24, 2-(4-tert-butylphenyl)-3-(1-methyl-3-trifluoromethyl-5-chloropyrazol-4-yl)-3-pivaloyloxyacrylonitrile]",,≥ 80%,,
"COC(=O)OC(=C(C#N)c1ccc(C(C)(C)C)cc1)c1c(Cl)nn(C)c1Cl [IV-36, 2-(4-tert-butylphenyl)-3-(3,5-dichloro-1-methylpyrazol-4-yl)-3-methoxycarbonyloxyacrylonitrile]",,≥ 80%,,
"Cn1nc(Cl)c(C(O)=C(C#N)c2coc(C(C)(C)C)n2)c1Cl [V-40, 2-{2-tert-butyloxazol-4-yl}-3-(3,5-dichloro-1-methyl-pyrazol-4-yl)-3-hydroxyacrylonitrile]",100%,≥ 80%,,
"CCOCOC(=C(C#N)c1coc(C(C)(C)C)n1)c1c(C(F)(F)F)nn(C)c1Cl [V-44, 2-(2-tert-butyloxazol-4-yl)-3-(5-chloro-1-methyl-3-trifluoromethylpyrazol-4-yl)-3-ethoxymethoxyacrylonitrile]",,≥ 80%,,
